We go through 16 compounds from the Kinase Knowledgebase extract (Sharma et al. 2016).

In this test the target is EGFR (human) (UniProt P00533). The conditions noted are these: huvec.

Molecules are shown by their SMILES.

Chain of EGFR (human) (P00533 whole entry, looked up): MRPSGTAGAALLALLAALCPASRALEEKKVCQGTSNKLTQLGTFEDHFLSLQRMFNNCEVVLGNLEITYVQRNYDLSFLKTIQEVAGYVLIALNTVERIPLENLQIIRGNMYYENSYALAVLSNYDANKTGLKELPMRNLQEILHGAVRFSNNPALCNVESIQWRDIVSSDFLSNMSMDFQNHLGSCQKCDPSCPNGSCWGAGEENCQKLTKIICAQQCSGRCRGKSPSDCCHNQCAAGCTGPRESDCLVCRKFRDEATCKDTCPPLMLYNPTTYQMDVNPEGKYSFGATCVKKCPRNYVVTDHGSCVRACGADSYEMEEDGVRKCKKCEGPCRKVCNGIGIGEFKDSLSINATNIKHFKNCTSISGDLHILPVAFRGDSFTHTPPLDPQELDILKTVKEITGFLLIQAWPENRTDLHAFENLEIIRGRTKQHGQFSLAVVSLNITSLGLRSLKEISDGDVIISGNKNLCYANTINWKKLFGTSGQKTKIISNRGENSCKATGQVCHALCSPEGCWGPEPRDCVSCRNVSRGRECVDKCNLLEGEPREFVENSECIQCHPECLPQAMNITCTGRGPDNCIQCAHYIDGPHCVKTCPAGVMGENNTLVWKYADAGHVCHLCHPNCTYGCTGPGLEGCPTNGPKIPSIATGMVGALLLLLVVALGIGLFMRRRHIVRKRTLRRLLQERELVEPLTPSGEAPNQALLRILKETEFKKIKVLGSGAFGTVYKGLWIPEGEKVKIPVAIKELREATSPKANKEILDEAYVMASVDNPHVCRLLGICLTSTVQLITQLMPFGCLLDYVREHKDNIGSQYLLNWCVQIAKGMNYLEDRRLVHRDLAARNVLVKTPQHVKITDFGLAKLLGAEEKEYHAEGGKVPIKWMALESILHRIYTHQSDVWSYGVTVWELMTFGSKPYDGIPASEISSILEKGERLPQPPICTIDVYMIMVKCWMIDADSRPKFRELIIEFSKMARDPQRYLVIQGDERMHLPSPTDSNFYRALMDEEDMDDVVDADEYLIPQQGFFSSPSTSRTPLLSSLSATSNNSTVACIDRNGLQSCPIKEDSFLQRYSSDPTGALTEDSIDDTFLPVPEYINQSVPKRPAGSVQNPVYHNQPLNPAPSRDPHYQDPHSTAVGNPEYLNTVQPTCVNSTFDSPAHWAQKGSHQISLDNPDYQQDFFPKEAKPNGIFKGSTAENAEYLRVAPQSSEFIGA

Broadly, the IC50 is the concentration needed to halve the response being measured. A low value points to greater potency. For `COc1cc2c(Nc3ccc(Br)cc3F)ncnc2cc1OCC1CCNCC1`, the IC50 is 100 nM.

Turning to `COc1cc2c(Nc3ccc(C)cc3F)ncnc2cc1OCC1CCN(C)CC1`, the IC50 was found to be 400 nM.

`COc1cc2c(Nc3ccc(Cl)cc3F)ncnc2cc1OC/C=C/CN1CCCC1` came in with an IC50 of 80 nM.

For the compound `COc1cc2c(Nc3ccc(Cl)cc3F)ncnc2cc1OCCC1CCN(C)CC1`, the IC50 was 200 nM.

Compound `COc1cc2c(Nc3c(F)cc(Br)cc3F)ncnc2cc1OCC1CCN(C)CC1` yielded an IC50 of 400 nM.

`COc1cc2c(Nc3ccc(Cl)cc3F)ncnc2cc1OC[C@@H]1CCCN(C)C1`: the IC50 was determined as 150 nM.

Regarding `COc1cc2c(Nc3c(F)cc(Cl)cc3F)ncnc2cc1OCC1CCNCC1`, the concentration for half-maximal inhibition (IC50) was 600 nM.

Regarding `COc1cc2c(Nc3cc(O)c(Cl)cc3F)ncnc2cc1OCC1CCN(C)CC1`, the IC50 is 70 nM.

Turning to `COc1cc2c(Nc3ccc(C#N)cc3F)ncnc2cc1OC/C=C/CN1CCCC1`, the IC50 turned out to be 1400 nM.

Consider `COc1cc2c(Nc3ccc(Cl)cc3F)ncnc2cc1OCC1CCNCC1`, for which the concentration for half-maximal inhibition (IC50) is 100 nM.

With `COc1cc2c(Nc3ccc(Br)cc3F)ncnc2cc1OC/C=C/CN1CCCC1`, the IC50 was found to be 90 nM.

`COc1cc2c(Nc3ccc(C)cc3F)ncnc2cc1OCC1CCNCC1` yielded an IC50 of 450 nM.

The compound `COc1cc2c(Nc3ccc(Br)cc3F)ncnc2cc1OCCCN1CCN(C)CC1` came in with a half-inhibitory concentration (IC50) of 90 nM.

On to `COc1cc2c(Nc3cc(O)c(C)cc3F)ncnc2cc1OCC1CCN(C)CC1`, for which the IC50 was determined as 200 nM.

For `COc1cc2c(Nc3c(F)cc(Br)cc3F)ncnc2cc1OCC1CCNCC1`, the IC50 worked out at 400 nM.

The compound `COc1cc2c(Nc3ccc(Cl)cc3F)ncnc2cc1OCCCN1CCN(C)CC1` gave an IC50 of 100 nM.
